The values below come from PubChem BioAssay (NCI).

Each structure is given as a SMILES string.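 How tested: cells in 96-well plates exposed to compound for 48 hours at five concentrations. TGI is the concentration that stops growth completely.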

What is called TGI is the concentration giving total growth inhibition. Read a high TGI as lower sensitivity of the cells.

Common to all, as to assay: DTP human tumour cell line panel, 48 h
For test [1], the system named is SF-539 CNS.
Test [2] concerns U251 CNS.
The subject of test [3] is EKVX NSCLC.
For test [4], the system named is LOX IMVI melanoma.
Test [5] has as its system SK-MEL-5 melanoma.
Test [6] relates to SW-620 colon.
Test [7] has as its system ACHN renal.
The subject of test [8] is HT29 colon.
Test [9] relates to HL-60(TB) leukemia.
Test [10] relates to NCI-H460 lung.

Regarding `CCCC(C)NC1=C(NC(C)=O)C(=O)c2ccccc2C1=O` (stereo unspecified), the TGI in test [1], in [2], in test [3], in [4], in [5] and in [6] was more than 100 µM each time. For the same molecule, the TGI in [7], in test [8], in test [9] and in test [10] was more than 100 µM in each case.
As to `NC1=NS(=O)(=O)Nc2nc(-c3ccc([N+](=O)[O-])o3)[nH]c21`, the TGI is 31.6 µM in test [1]; 31.7 µM in [2]; 29.4 µM in test [4]; 33.4 µM in test [5]; 35.4 µM in [6]; 30.5 µM in test [7]. Besides, the figures for the TGI in test [8], in test [9] and in test [10] were 42.4 µM, 4.93 µM and 44 µM, respectively.
With `CC(=O)C1=C(C)NC2C=CC=CN12` (stereo unspecified), the TGI in test [1], in [2], in [3], in test [4], in test [5] and in test [6] was more than 100 µM each time. For the same molecule, the TGI in test [7], in test [8], in test [9] and in test [10] was more than 100 µM throughout.
Consider `COc1ccc(O)cc1`, for which the TGI in test [1], in [2], in test [3], in test [4], in test [5] and in test [6] was more than 100 µM throughout. In addition, the TGI in test [7], in [8], in [9] and in [10] was more than 100 µM throughout.
As to `O=C1Nc2c(ccc(Cl)c2I)C1=O`, the total growth inhibition concentration (TGI) amounted to 56.9 µM in test [2]; 36.8 µM in test [3]; 37 µM in test [4]; 29.5 µM in test [5]; 45.6 µM in test [6]; 29 µM in test [7]. Moreover, the TGI in test [8] is more than 100 µM; in test [9], 48.1 µM; in [10] it was 31.8 µM.
`NC1=NS(=O)(=O)Nc2nc(-c3ccc(Cl)cc3)c(-c3ccc(Cl)cc3)nc21`: the TGI in [1], in test [2], in test [4], in [5], in [6] and in test [7] was more than 100 µM in each case. In addition, the TGI in test [8], in test [9] and in [10] was more than 100 µM throughout.
Take `CCCCCCCCCCCCCCCCCC(=O)O[C@H](COC(=O)CCCCCCCCCCC)COC(=O)CCCCCCCCCCCCCCC`: the TGI in test [2], in test [4], in [5], in test [6], in [7] and in test [8] was more than 100 µM throughout. Also, the TGI in test [9] and in test [10] was more than 100 µM throughout.
Regarding `O=C(CSc1nnc(Cc2ccccc2)o1)Nc1ccc([N+](=O)[O-])cc1`, the TGI in test [1], in test [2], in [4], in [5], in test [7] and in [8] was more than 100 µM in each case. In addition, the TGI in test [9] and in test [10] was more than 100 µM each time.
In the case of `O=C(Cc1ccccc1)NN1C(=O)C(Cl)C1c1ccc(O)cc1` (stereo unspecified), the TGI in [2], in [3], in test [4], in [5], in test [6] and in test [7] was more than 100 µM each time. Besides, the TGI in test [8], in test [9] and in test [10] was more than 100 µM in each case.
As for `CC(C)C(=O)/C=C/c1ccc(Br)cc1`, the TGI in [1] is 35.5 µM; in test [2], 22.9 µM; in [3] it was 50.9 µM; in test [4] it was 32.1 µM; in test [5] it was 26.6 µM; in test [6], 23.1 µM. Moreover, the TGI was 25.4 µM in test [7], 31.6 µM in test [8], 41.2 µM in [9] and 30.1 µM in test [10].
In the case of `O=C1c2ccccc2C(=O)N1Cc1ccccc1-c1c2nc(c(-c3ccccc3CN3C(=O)c4ccccc4C3=O)c3ccc([nH]3)c(-c3ccccc3CN3C(=O)c4ccccc4C3=O)c3nc(c(-c4ccccc4CN4C(=O)c5ccccc5C4=O)c4ccc1[nH]4)C=C3)C=C2`, the TGI in [1], in test [2], in test [4], in [5], in [6] and in test [7] was more than 100 µM each time. Moreover, the TGI in [8], in test [9] and in test [10] was more than 100 µM each time.
